Laboratory results reported in PubChem BioAssay (NCI).
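Step 1: Grow cells in 96-well plates. Step 2: Expose to compound for 48 hours at 5 concentrations. Step 3: Interpolate endpoints linearly; if unreached, use highest concentration. TGI is the concentration that stops growth completely.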

Legend:
Assay in all cases: NCI anticancer screen, dose series, 48 h
[1] = tested on: NCI-H460 lung
[2] = tested on: OVCAR-8 ovarian
[3] = tested on: SF-268 CNS
[4] = tested on: RPMI-8226 leukemia
[5] = tested on: MDA-MB-435
[6] = tested on: SW-620 colon
[7] = tested on: HT29 colon
[8] = tested on: HCT-116 colon
[9] = tested on: EKVX NSCLC
[10] = tested on: MDA-N
[11] = tested on: NCI-H23 lung
[12] = tested on: NCI-H522 lung
[13] = tested on: SNB-19 CNS
[14] = tested on: RXF 393 renal
[15] = tested on: SN12C renal
[16] = tested on: UACC-257 melanoma
[17] = tested on: SF-539 CNS
[18] = tested on: SK-MEL-5 melanoma
[19] = tested on: A498 renal

Row | SMILES | TGI [1] [µM] | TGI [2] [µM] | TGI [3] [µM] | TGI [4] [µM] | TGI [5] [µM] | TGI [6] [µM] | TGI [7] [µM] | TGI [8] [µM] | TGI [9] [µM] | TGI [10] [µM] | TGI [11] [µM] | TGI [12] [µM] | TGI [13] [µM] | TGI [14] [µM] | TGI [15] [µM] | TGI [16] [µM] | TGI [17] [µM] | TGI [18] [µM] | TGI [19] [µM]
1 | COc1ccc(N2C(=O)c3cc([N+](=O)[O-])cnc3S2(=O)=O)cc1 | > 100 | > 100 | > 100 | > 100 | > 100 | > 100 | > 100 | > 100 | > 100 | > 100 | > 100 | > 100 | > 100 | > 100 | > 100 |  |  |  | 
2 | Cc1cccc(Nc2nc3ccccc3nc2NS(=O)(=O)c2ccc(N)cc2)c1 | > 100 | > 100 | > 100 | > 100 | > 100 | > 100 | > 100 | > 100 | > 100 | > 100 | 53.3 | > 100 | > 100 | 70.5 | > 100 | > 100 | 93.9 | > 100 | 
3 | O=C(O)c1cc(CCc2ccc(O)c(O)c2)ccc1O | > 100 | > 100 | > 100 |  | > 100 | > 100 | > 100 | > 100 |  | 32.3 | > 100 | > 100 | > 100 |  | > 100 | > 100 | > 100 | > 100 | > 100
4 | CCNC1=C(NC(=O)c2ccc(F)cc2)C(=O)c2ccccc2C1=O | > 100 | > 100 | > 100 | > 100 | 35.9 | > 100 | 53.6 | > 100 | > 100 | > 100 | > 100 | > 100 | > 100 | 84.4 | > 100 | 46.9 | > 100 | > 100 | 
5 | Clc1ccc(OCC2NC3CCC2CC3)cn1 (configuration not stated) | 55.1 | > 100 | > 100 | 32.5 | 43.4 | 57.1 | 33.3 | 35.9 | 60.6 | 33.5 | > 100 | 40.1 | 77.1 | > 100 | 96.6 | 36 | 38.5 | 31.8 | 
6 | O=C1c2ccccc2C(=O)N1/N=C1/SC(=Nc2ccccc2)C(=Nc2ccccc2)N1c1ccccc1 | > 100 | > 75.9 | > 100 | > 79.1 | > 100 | > 100 | > 100 | > 100 | > 100 |  | > 88.6 | > 100 | > 100 | 14.3 | > 100 | > 100 | > 100 | > 90.3 | > 63.1
7 | Cc1nc2ccc(F)cc2c2c1CCS2 | > 100 | > 100 | > 100 | > 100 | > 100 | > 100 | > 100 | > 100 | > 100 |  | > 100 | > 100 | > 100 | 73.9 |  | > 100 | > 100 | > 100 | > 100
8 | COc1cc2nc(-c3cccs3)nc(Nc3cccc([N+](=O)[O-])c3)c2cc1OC | 77.1 | 56.8 | 43.6 | 98.3 | 31.6 | 50.7 | > 100 | 32.8 | 33.1 |  | 28.9 | 38.1 | 33.6 | 74.1 | 33.2 | 44.2 | 34 | > 100 | > 100
9 | CCC(C)N1CN(c2ccccc2)C2(CCN(CC3COc4ccccc4O3)CC2)C1=O (configuration not stated) |  | 67.9 | > 100 | 47.2 | 49.7 | 58.8 | 40.3 | 32 | 64.1 | 64.1 | 73.1 | 68.6 | > 100 | 38.1 | 84.2 | 65.9 | 33.3 | 28.9 | 
10 | O=C(CCC(=O)c1ccsc1)c1ccsc1 | > 100 | > 100 | > 100 | > 100 | > 100 | > 100 |  | > 100 |  | > 100 | > 100 | > 100 | > 100 | > 100 | > 100 | > 100 | > 100 | > 100 | > 100
11 | COc1cc([C@@H]2c3cc4c(cc3[C@H](OC3OC5COC(c6ccco6)OC5C(O)C3O)C3COC(=O)[C@@H]32)OCO4)cc(OC)c1OC (some centres not stated) |  | > 100 | > 100 | > 100 | > 100 | > 100 | > 100 | > 100 |  |  | > 79.4 | > 57.3 | > 100 | > 100 |  | > 100 | > 100 | > 72.4 | 
12 | COc1ccc2c(O)c(Oc3ccc(Cl)cc3)c(=O)oc2c1 | > 100 | > 100 | > 100 | > 100 |  | > 100 | > 100 | > 100 | > 100 | > 100 | > 100 | > 100 | > 100 | > 100 | > 100 | > 100 | > 100 | > 100 | > 100
13 | C=C1CC[C@](C)(O)[C@@]2(C)CC[C@H]3C(=C(C)C)C(=O)C[C@]3(C)C[C@H]12 |  | > 50 | > 50 | > 50 | > 50 | > 50 | > 50 | > 50 | > 50 |  | > 50 | > 50 | > 50 | > 50 | > 50 | > 50 | > 50 | > 50 | > 50
14 | CCCCNC(=O)OCCN=c1c2ccccc2ccc2ccccc12 | > 100 | > 100 | > 100 | > 100 | > 100 | > 100 | > 100 | > 100 | > 100 | > 100 | > 100 |  | > 100 | > 100 | > 100 | > 100 | > 100 | > 100 | 
15 | Cc1ccc(-c2n[nH]c(=O)n2/N=C\c2ccccc2O)cc1 | > 100 | > 100 | > 100 | > 100 | > 100 | > 100 | > 100 | > 100 | > 100 | > 100 | > 100 | > 100 | > 100 | > 100 | > 100 | > 100 | > 100 | > 100 | 
16 | CN(C)c1cccc(-c2cc(=S)c3cc4c(cc3[nH]2)OCO4)c1 | > 100 | > 100 | > 100 | > 100 |  | > 100 | 24.7 | > 100 | > 100 | 11.8 | > 100 | 67.7 | > 100 | 43.3 | > 100 | > 100 | > 100 | > 100 | > 100
17 | Cc1nnc2n1N=C(c1cc(F)c(Cl)cc1Cl)/C(=C/c1ccc(-c3ccc([N+](=O)[O-])cc3)o1)S2 | > 100 | > 100 | > 100 | > 100 | > 100 | > 100 | > 100 | > 100 | > 100 |  | > 100 | > 100 | > 100 |  | > 100 | > 100 |  | > 100 | > 100
18 | N#CC(C#N)=c1c(=O)c2c3ccccc3cc3cccc1c32 | > 100 |  | > 100 | > 100 | > 100 | > 100 | > 100 | > 100 |  | > 100 | > 100 |  | > 100 |  | > 100 | > 100 |  | > 100 | > 100
19 | O=C(CC(NC(=O)OCc1ccccc1)C(=O)NC1Cc2ccccc2C1=O)OCc1ccccc1 (configuration not stated) | > 100 | > 100 | > 100 | > 100 | > 100 | > 100 | > 100 |  | > 100 | > 100 | > 100 | > 100 | > 100 | > 100 | > 100 | > 100 | > 100 | > 100 | 
20 | CC(C)OC(=O)NCCn1cc(-c2ccccc2)nn1 | > 100 | > 100 | > 100 | > 100 | > 100 |  | > 100 | > 100 | > 100 |  | > 100 | > 100 | > 100 |  | > 100 | > 100 | > 100 | > 100 | 
21 | CCCN(CCC)C(=S)Sc1nc(C)nc(N2CCN(c3nc(C)nc(SC(=S)N(CCC)CCC)c3[N+](=O)[O-])CC2)c1[N+](=O)[O-] | > 100 | > 100 | 98.5 | > 38.2 | > 65.9 | 17.1 | 21.7 | 16.9 | > 83 | > 100 | 36.8 | 3.17 | > 88.3 | > 29.5 | > 39.8 | 54.2 | > 80.6 | 28.2 | 
22 | NC(N)=N/N=C/c1c(-c2ccccc2[N+](=O)[O-])nc2sccn12 | 39.7 | > 100 | > 100 | 42.8 | 35.1 | 38 | 81.6 | 34.4 | > 100 |  | 86.5 | 39.8 | 77.4 | 32.4 | > 100 | 35.6 | 37.6 | 30.8 | 37.7
23 | COCCN(C(=O)c1ccccc1)C1CCC2(SCCS2)c2[nH]c3ccccc3c21 (configuration not stated) | > 100 | > 100 | > 100 | 61.8 | 69.6 | > 100 | > 100 | > 100 | > 100 |  | > 100 | 98.8 | > 100 | 87.7 | > 100 | > 100 | > 100 | > 100 | > 100
24 | O=C(c1ccc2ccccc2c1)C1(I)S(=O)(=O)OCCOS1(=O)=O | > 100 | > 100 |  | > 100 | > 100 |  | > 100 | > 100 | > 100 | > 100 | > 100 |  | > 100 |  | > 100 |  |  | > 100 | 
25 | CC(=O)OCC1OC(n2c3c(c(-c4ccc(C)cc4)c(C#N)c2=S)C(=O)CC(C)(C)C3)C(OC(C)=O)C(OC(C)=O)C1OC(C)=O (configuration not stated) | > 100 | > 100 | 94.9 | > 100 | > 100 | > 100 | > 100 | > 100 |  | 41.5 | > 100 | > 100 | > 100 | 92.2 | 42.7 | 38.3 | 67.2 | > 100 | > 100
26 | O=C(CNc1ccccc1[N+](=O)[O-])Nn1cnc2ccc(S(=O)(=O)Nc3ccccc3[N+](=O)[O-])cc2c1=O | > 100 | > 100 | > 100 | > 100 | > 100 | > 100 | > 100 | > 100 | > 100 | > 100 | > 100 | > 100 | > 100 |  | > 100 | > 100 | > 100 |  | 
27 | C=C=C[P+](c1ccccc1)(c1ccccc1)c1ccccc1 | 45.7 | > 100 | > 100 | 6.37 |  |  |  | 15.5 |  |  |  | 6 |  |  | 17.8 | 39.5 | 40.2 | 23.3 | > 100
